Measured values from patent US8575153B2 (Kowa Company, Ltd., priority 2008, dated 2013).

Target: Recombinant human JAK3 enzyme (JAK3 kinase region; Ala795-Ser1124) (Homo sapiens, UniProt P52333)
Assay: JAK3 Kinase Assay (Kinase-Glo luminescent, ATP consumption)
Settings: read-out: Inhibition rate (%) of JAK3 kinase activity

Chain of Recombinant human JAK3 enzyme (JAK3 kinase region; Ala795-Ser1124) (P52333 795-1124): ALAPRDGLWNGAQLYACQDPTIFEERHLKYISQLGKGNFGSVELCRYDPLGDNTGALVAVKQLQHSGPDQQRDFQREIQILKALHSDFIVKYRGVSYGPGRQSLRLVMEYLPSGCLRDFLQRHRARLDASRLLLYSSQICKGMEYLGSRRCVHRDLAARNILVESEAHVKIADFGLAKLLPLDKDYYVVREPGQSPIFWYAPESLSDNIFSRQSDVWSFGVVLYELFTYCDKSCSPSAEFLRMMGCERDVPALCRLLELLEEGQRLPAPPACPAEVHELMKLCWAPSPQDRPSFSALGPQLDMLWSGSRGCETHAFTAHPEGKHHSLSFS

SMILES | inhibition at 1 µM [%] | inhibition at 0.1 µM [%]
NC(=O)c1cnc(Nc2ccc(N3CCOCC3)cc2)cc1NCC1CC1 [Example 362, 4-[(cyclopropylmethyl)amino]-6-[(4-morpholinophenyl)amino]pyridine-3-carboxyamide] | 40 | 
CC1CCCCC1Nc1cc(Nc2ccc(N3CCOCC3)cc2)ncc1C(N)=O (stereo not drawn) [Example 349, 4-[(2-methylcyclohexyl)amino]-6-[(4-morpholinophenyl)amino]pyridine-3-carboxyamide] | 90 | 
NC(=O)c1cnc(Nc2ccc(N3CCOCC3)cc2)cc1NCc1cc(F)ccc1F [Example 93, 4-[(2,5-difluorobenzyl)amino]-6-[(4-morpholinophenyl)amino]pyridine-3-carboxyamide] |  | 86
N#CCCC1CCN(c2ccc(Nc3cc(NCc4ccccc4)c(C(N)=O)cn3)cc2)CC1 [Example 60, 4-(benzylamino)-6-({4-[4-(2-cyanoethyl)piperidino]phenyl}amino)pyridine-3-carboxyamide] |  | 65
N#CCCN1CCN(c2ccc(Nc3cc(NCc4cc(F)cc(F)c4)c(C(N)=O)cn3)cc2)CC1 [Example 240, 6-({4-[4-(2-cyanoethyl)piperazin-1-yl]phenyl}amino)-4-[(3,5-difluorobenzyl)amino]pyridine-3-carboxyamide] |  | 85
Cc1ccccc1CNc1cc(Nc2ccc(N3CCC(O)CC3)cc2)ncc1C(N)=O [Example 185, 4-[(2-methylbenzyl)amino]-6-{[4-(4-hydroxypiperidino)phenyl]amino}pyridine-3-carboxyamide] |  | 87
NC(=O)c1cnc(Nc2ccc(N3CCNCC3)cc2)cc1NCc1cccnc1 [Example 355, 6-{(4-(piperazin-1-yl)phenyl]amino}-4-[(pyridin-3-ylmethyl)amino}pyridine-3-carboxyamide] | 92 | 
NC(=O)c1cnc(Nc2ccc(N3CCC(O)CC3)cc2)cc1NCc1ccccc1Cl [Example 186, 4-[(2-chlorobenzyl)amino]-6-{[4-(4-hydroxypiperidino)phenyl]amino}pyridine-3-carboxyamide] |  | 93
NC(=O)c1cnc(Nc2ccc(N3CCOCC3)cc2)cc1NCC1CCCCC1 [Example 361, 4-[(cyclohexylmethyl)amino]-6-[(4-morpholinophenyl)amino]pyridine-3-carboxyamide] | 83 | 
NCCS(=O)(=O)Nc1ccc(Nc2cc(NCc3cc(F)cc(F)c3)c(C(N)=O)cn2)cc1 [Example 305, 6-[(4-{[(2-aminoethyl)sulfonyl]amino}phenyl)amino]-4-[(3,5-difluorobenzyl)amino]pyridine-3-carboxyamide] |  | 77
NC(=O)c1cnc(Nc2ccc(N3CCNCC3)cc2)cc1NCc1cccc([N+](=O)[O-])c1 [Example 224, 4-[(3-nitrobenzyl)amino]-6-{[4-(piperazin-1-yl)phenyl]amino}pyridine-3-carboxyamide] |  | 68
CC(C)N1CCN(c2ccc(Nc3cc(NCc4c(F)cccc4F)c(C(N)=O)cn3)cc2)CC1 [Example 153, 4-[(2,6-difluorobenzyl)amino]-6-({4-[4-(propan-2-yl)piperazin-1-yl]phenyl}amino)pyridine-3-carboxyamide] |  | 94
NC(=O)c1cnc(Nc2ccc(N3CCNCC3)cc2)cc1NCc1ccccc1 [Example 219] |  | 65
NC(=O)c1cnc(Nc2ccc(N3CCOCC3)cc2)cc1NCc1cc(F)cc(C(F)(F)F)c1 [Example 96, 6-[(4-morpholinophenyl)amino]-4-{[3-fluoro-5-(trifluoromethyl)benzyl]amino}pyridine-3-carboxyamide] |  | 74
CC(C)N1CCN(c2ccc(Nc3cc(NCc4ccccc4)c(C(N)=O)cn3)cc2)CC1 [Example 146, 4-(benzylamino)-6-({4-[4-(propan-2-yl)piperazin-1-yl]phenyl}amino)pyridine-3-carboxyamide] |  | 78
